Measurements published in patent US20240158418A1 (C4 Therapeutics, Inc., priority 2021, published 2024).
Where two headings read alike, the source gives them in different places.

Key:
Format in all cases: cell-based
EGFR L858R-T790M-C797S = target: T1, EGFR L858R-T790M-C797S (Homo sapiens, UniProt P00533, C797S/L858R/T790M); assay: EGFR degradation, Total EGFR (L858R-specific) HTRF, NCI-H1975+CS; conditions: Table 9B; NCI-H1975 C797S clone, 6 hours, Total EGFR HTRF; read-out: H1975 C797S clone EGFR DC50
T1 construct: generated using CRISPR technology to introduce the additional C797S mutation by Horizon Discovery; host or cells: NCI-H1975+CS (CRISPR knock-in of C797S)
T1 sequence (P00533 25-1210 T790M/C797S/L858R): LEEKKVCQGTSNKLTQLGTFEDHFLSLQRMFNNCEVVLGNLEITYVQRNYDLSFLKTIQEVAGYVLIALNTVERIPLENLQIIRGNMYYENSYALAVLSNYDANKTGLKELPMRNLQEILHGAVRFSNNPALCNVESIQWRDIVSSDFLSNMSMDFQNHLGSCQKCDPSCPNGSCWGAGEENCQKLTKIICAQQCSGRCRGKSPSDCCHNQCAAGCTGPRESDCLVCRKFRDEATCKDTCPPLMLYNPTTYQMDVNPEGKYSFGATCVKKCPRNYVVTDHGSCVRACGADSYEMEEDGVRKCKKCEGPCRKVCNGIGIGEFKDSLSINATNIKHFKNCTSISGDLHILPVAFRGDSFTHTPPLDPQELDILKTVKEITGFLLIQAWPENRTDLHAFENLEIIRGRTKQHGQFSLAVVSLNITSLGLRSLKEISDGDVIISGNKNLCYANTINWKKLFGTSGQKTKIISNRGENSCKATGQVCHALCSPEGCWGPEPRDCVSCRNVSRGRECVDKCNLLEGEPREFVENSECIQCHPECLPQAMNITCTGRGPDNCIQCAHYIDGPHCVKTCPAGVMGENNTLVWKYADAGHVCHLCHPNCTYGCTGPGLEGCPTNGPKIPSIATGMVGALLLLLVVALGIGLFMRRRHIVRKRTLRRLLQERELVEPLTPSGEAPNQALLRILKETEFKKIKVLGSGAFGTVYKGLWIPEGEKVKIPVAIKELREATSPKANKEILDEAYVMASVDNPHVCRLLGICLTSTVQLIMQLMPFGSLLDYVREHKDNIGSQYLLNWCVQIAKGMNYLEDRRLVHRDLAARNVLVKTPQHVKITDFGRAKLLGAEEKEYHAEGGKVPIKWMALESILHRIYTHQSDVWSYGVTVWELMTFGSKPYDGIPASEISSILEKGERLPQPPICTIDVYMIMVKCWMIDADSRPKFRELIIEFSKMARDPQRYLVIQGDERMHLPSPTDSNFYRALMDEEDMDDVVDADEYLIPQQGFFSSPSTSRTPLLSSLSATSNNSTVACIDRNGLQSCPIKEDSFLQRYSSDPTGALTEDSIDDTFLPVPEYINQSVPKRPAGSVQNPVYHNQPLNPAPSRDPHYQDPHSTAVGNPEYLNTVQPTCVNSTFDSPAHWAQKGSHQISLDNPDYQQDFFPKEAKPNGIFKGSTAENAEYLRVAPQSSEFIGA
Excerpt: (§1) NCI-H1975 (harboring EGFR heterozygous L858R-T790M mutations) and NCI-H3255 (harboring EGFR heterozygous L858R mutation) were purchased from ATCC and NCI, respectively. NCI-H1975+CS (harboring EGFR heterozygous L858R-T790M-C797S mutations) was generated using CRISPR technology to introduce the additional C797S mutation by Horizon Discovery. A431 (harboring EGFR wildtype) was purchased from ATCC. RPMI 1640 no-phenol red medium and fetal bovine serum (FBS) were purchased from Gibco (Grand Island, NY, USA). Cell culture flasks and 384-well microplates were acquired from VWR (Radnor, PA, USA). Phosphorylated (pY1068) EGFR and Total EGFR (using L858R-specific detection antibody and pan-EGFR antibody for EGFR mutant cell lines and EGFR wild-type cell lines, respectively) HTRF assay kits were purchased from Cisbio (Bedford, MA, USA).
(§2) Degradation of EGFR protein containing L858R mutation or wild-type was determined based on quantification of FRET signal using a Total EGFR (L858R-specific or pan-EGFR detecting) HTRF assay kit. Phospho-EGFR (pEGFR) inhibition was determined based on quantification of FRET signal using a pY1068 EGFR HTRF assay kit. In separate assay plates, test compounds were added to the 384-well plate from a top concentration of 10 μM with 11 points, half log titration in duplicates. For each assay, 12.5 uL of cells suspended in assay media (RPMI 1640 no-phenol red medium+10% FBS) at cell densities indicated for each cell line in Table 8 below were dispensed using a multi-channel pipette to 384-well low volume white HTRF microplates containing a duplicate concentration range of test compounds and DMSO controls. The plates were kept at 37° C. with 5% CO2 for 6 hours and then incubated with either phospho EGFR or Total EGFR HTRF detection antibodies according to the cell line and EGFR mutant being assayed. Cells treated in the absence of the test compound were the negative control. Positive control was set by wells containing all reagents but no cells. FRET signal was acquired on EnVision™ Multilabel Reader (PerkinElmer, Santa Clara, CA, USA). Compound concentration that achieves 50% degradation and inhibition was reported as DC50 and IC50, respectively.

EGFR L858R-T790M = target: T2, EGFR L858R-T790M (Homo sapiens, UniProt P00533, L858R/T790M); assay: EGFR degradation, Total EGFR (L858R-specific) HTRF, NCI-H1975; conditions: NCI-H1975 cells, 6 hours, Total EGFR HTRF, read-out: H1975 EGFR DC50
T2 construct: NCI-H1975 (harboring EGFR heterozygous L858R-T790M mutations); host or cells: NCI-H1975
T2 sequence (P00533 25-1210 T790M/L858R): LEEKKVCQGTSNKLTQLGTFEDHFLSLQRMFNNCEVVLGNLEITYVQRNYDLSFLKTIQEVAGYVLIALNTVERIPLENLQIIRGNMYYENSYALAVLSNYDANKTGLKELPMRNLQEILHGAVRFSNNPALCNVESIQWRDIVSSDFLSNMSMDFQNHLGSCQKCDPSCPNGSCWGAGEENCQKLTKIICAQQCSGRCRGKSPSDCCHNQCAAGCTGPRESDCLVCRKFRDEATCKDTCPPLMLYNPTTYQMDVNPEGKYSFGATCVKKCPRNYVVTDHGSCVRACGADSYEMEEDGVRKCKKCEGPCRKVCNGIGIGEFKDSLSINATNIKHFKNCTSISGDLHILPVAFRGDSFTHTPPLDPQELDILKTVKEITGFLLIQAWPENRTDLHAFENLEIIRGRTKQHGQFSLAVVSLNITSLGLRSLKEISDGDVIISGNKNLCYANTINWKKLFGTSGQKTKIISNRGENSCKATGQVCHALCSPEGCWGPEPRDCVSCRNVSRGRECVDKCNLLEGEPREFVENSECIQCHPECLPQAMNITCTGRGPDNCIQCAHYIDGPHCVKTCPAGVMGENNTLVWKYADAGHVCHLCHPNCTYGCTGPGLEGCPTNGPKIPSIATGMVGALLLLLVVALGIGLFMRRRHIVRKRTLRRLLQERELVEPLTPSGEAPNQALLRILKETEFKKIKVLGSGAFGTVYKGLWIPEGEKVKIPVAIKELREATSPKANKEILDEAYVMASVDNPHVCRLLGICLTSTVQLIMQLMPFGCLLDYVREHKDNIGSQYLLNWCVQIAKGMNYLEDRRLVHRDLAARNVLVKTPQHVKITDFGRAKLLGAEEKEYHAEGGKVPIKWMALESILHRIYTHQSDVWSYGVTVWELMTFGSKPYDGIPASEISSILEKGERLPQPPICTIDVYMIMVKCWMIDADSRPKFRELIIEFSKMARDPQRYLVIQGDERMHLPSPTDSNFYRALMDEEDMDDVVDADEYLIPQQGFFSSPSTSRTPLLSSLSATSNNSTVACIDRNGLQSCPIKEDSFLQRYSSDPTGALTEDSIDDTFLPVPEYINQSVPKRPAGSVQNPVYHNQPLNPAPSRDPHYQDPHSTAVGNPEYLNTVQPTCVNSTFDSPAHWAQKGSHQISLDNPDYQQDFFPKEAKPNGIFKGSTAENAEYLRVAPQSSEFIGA
Outline: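 FRET signal from HTRF kits measured phospho-EGFR at pY1068 or total EGFR after 6 h treatment at 37 °C. Compounds ran as 11-point half-log dilutions from 10 μM in duplicate, in cells in phenol red-free RPMI with 10% FBS. Concentrations giving 50% inhibition or degradation were reported as IC50 or DC50.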

EGFR L858R = EGFR L858R (Homo sapiens, UniProt P00533, L858R); assay: EGFR degradation, Total EGFR (L858R-specific) HTRF, NCI-H3255; design: NCI-H3255 (harboring EGFR heterozygous L858R mutation); host or cells: NCI-H3255; conditions: NCI-H3255 cells, 6 hours, Total EGFR HTRF, read-out: H3255 EGFR DC50
Sequence of EGFR L858R (P00533 25-1210 L858R): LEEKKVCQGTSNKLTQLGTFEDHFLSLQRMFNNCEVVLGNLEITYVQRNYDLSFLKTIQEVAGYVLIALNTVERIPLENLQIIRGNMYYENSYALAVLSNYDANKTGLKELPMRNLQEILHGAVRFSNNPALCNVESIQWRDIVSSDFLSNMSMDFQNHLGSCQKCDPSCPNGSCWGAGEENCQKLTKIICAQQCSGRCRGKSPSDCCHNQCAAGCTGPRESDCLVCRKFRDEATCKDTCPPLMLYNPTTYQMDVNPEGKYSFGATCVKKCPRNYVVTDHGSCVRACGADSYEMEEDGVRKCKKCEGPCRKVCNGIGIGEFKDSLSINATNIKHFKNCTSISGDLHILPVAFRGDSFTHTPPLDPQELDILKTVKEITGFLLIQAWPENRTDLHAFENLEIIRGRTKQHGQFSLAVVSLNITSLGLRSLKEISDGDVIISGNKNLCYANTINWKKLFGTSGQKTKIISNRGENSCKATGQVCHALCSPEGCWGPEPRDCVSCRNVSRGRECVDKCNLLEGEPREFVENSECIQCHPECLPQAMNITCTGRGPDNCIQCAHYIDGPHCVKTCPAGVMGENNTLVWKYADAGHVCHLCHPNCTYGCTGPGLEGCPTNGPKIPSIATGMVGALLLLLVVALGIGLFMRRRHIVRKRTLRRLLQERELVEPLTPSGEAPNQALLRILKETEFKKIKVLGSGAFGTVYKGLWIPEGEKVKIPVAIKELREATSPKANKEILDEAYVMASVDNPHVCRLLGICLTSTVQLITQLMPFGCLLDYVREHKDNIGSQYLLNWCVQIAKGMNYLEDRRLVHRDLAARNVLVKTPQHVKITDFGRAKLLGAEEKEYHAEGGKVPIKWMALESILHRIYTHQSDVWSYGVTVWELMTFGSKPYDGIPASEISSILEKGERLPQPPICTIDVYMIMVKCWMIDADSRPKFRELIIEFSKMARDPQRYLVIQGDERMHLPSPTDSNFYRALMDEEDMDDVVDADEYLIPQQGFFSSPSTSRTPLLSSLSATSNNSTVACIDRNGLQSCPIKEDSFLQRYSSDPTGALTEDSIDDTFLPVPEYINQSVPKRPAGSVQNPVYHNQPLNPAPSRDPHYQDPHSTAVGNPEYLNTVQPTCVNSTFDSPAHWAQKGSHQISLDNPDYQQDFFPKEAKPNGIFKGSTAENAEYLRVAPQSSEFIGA
Excerpt: as §1, §2

| Structure (SMILES) | DC50 (EGFR L858R-T790M-C797S) | DC50 (EGFR L858R-T790M; Table 9B) | DC50 (EGFR L858R; Table 9B) | DC50 (EGFR L858R-T790M; Table 9A) | DC50 (EGFR L858R; Table 9A) |
| --- | --- | --- | --- | --- | --- |
| O=C1CC[C@H](Nc2ccc(C3CCN(C(=O)CC4(O)CCN(c5ccc(-c6cc(F)c7cn(C(C(=O)Nc8nccs8)c8ncn9c8CCC9)nc7c6)cn5)CC4)CC3)c(F)c2)C(=O)N1 (stereo partly drawn) [Compound 150, 2-(6,7-dihydro-5H-pyrrolo[1,2-c]imidazol-1-yl)-2-[6-[6-[4-[2-[4-[4-[[(3S)-2,6-dioxo-3-piperidyl]amino]-2-fluoro-phenyl]-1-piperidyl]-2-oxo-ethyl]-4-hydroxy-1-piperidyl]-3-pyridyl]-4-fluoro-indazol-2-yl]-N-thiazol-2-yl-acetamide] | < 50 nM | – | – | – | – |
| O=C1CC[C@H](Nc2ccc(C3CCN(C(=O)CC4(O)CCN(c5ccc(-c6ccc7cn(C(C(=O)Nc8nccs8)c8ncn9c8CCC9)nc7c6F)cn5)CC4)CC3)c(F)c2)C(=O)N1 (stereo partly drawn) [Compound 151, 2-(6,7-dihydro-5H-pyrrolo[1,2-c]imidazol-1-yl)-2-[6-[6-[4-[2-[4-[4-[[(3S)-2,6-dioxo-3-piperidyl]amino]-2-fluoro-phenyl]-1-piperidyl]-2-oxo-ethyl]-4-hydroxy-1-piperidyl]-3-pyridyl]-7-fluoro-indazol-2-yl]-N-thiazol-2-yl-acetamide] | < 50 nM | – | – | – | – |
| Cn1nc(N2CCC(=O)NC2=O)c2ccc(C3CCN(C(=O)CN4CCC(c5ccc(-c6cc(F)c7c(c6)C(=O)N(C(C(=O)Nc6nccs6)c6ncn8c6CCC8)C7)cc5)CC4)CC3)cc21 (stereo not drawn) [Compound 85, 2-(6,7-dihydro-5H-pyrrolo[1,2-c]imidazol-1-yl)-2-[6-[4-[1-[2-[4-[3-(2,4-dioxohexahydropyrimidin-1-yl)-1-methyl-indazol-6-yl]-1-piperidyl]-2-oxo-ethyl]-4-piperidyl]phenyl]-4-fluoro-1-oxo-isoindolin-2-yl]-N-thiazol-2-yl-acetamide] | – | 50 to 150 nM | < 50 nM | – | – |
| O=C1CC[C@H](Nc2ccc(C3CCN(CC(=O)N4CCC(n5cc(-c6cc(F)c7c(c6)C(=O)N(C(C(=O)Nc6nccs6)c6ncn8c6CCC8)C7)cn5)CC4)CC3)cc2)C(=O)N1 (stereo partly drawn) [Compound 28, 2-(6,7-dihydro-5H-pyrrolo[1,2-c]imidazol-1-yl)-2-[6-[1-[1-[2-[4-[4-[[(3S)-2,6-dioxo-3-piperidyl]amino]phenyl]-1-piperidyl]acetyl]-4-piperidyl]pyrazol-4-yl]-4-fluoro-1-oxo-isoindolin-2-yl]-N-thiazol-2-yl-acetamide] | – | – | – | < 50 nM | < 50 nM |
| C[C@@H]1CC(O)(CC(=O)N2CC3(C2)CN(c2ccc(-c4cc(F)c5cn(C(C(=O)Nc6nccs6)c6ncn7c6CCC7)nc5c4)cc2)C3)C[C@H](C)N1c1ccc(NC2CCC(=O)NC2=O)cc1F (stereo partly drawn) [Compound 148, 2-(6,7-dihydro-5H-pyrrolo[1,2-c]imidazol-1-yl)-2-[6-[4-[2-[2-[(2s,6r)-1-[4-[(2,6-dioxo-3-piperidyl)amino]-2-fluoro-phenyl]-4-hydroxy-2,6-dimethyl-4-piperidyl]acetyl]-2,6-diazaspiro[3.3]heptan-6-yl]phenyl]-4-fluoro-indazol-2-yl]-N-thiazol-2-yl-acetamide] | < 50 nM | – | – | – | – |
| O=C1CCC(Nc2ccc(C3CCN(CC(=O)N4CCN(c5ccc(-c6cc(F)c7cn(C(C(=O)Nc8nccs8)c8ncn9c8CCC9)nc7c6)cn5)CC4)CC3)nc2)C(=O)N1 (stereo not drawn) [Compound 66, 2-(6,7-dihydro-5H-pyrrolo[1,2-c]imidazol-1-yl)-2-[6-[6-[4-[2-[4-[5-[(2,6-dioxo-3-piperidyl)amino]-2-pyridyl]-1-piperidyl]acetyl]piperazin-1-yl]-3-pyridyl]-4-fluoro-indazol-2-yl]-N-thiazol-2-yl-acetamide] | – | – | – | < 50 nM | < 50 nM |
| O=C1CCN(c2ccc(N3CCC(O)(CC(=O)N4CC5(C4)CN(c4ccc(-c6cc(F)c7cn(C(C(=O)Nc8nccs8)c8ncn9c8CCC9)nc7c6)cc4)C5)CC3)c(F)c2)C(=O)N1 (stereo not drawn) [Compound 147] | < 50 nM | – | – | – | – |
| O=C1CCC(Nc2ccc(N3CCC(O)(CC(=O)N4CCN(c5ccc(-c6cc(F)c7c(c6)C(=O)N(C(C(=O)Nc6nccs6)c6ncn8c6CCC8)C7)cc5)CC4)CC3)c(F)c2)C(=O)N1 (stereo not drawn) [Compound 83, 2-(6,7-dihydro-5H-pyrrolo[1,2-c]imidazol-1-yl)-2-[6-[4-[4-[2-[1-[4-[(2,6-dioxo-3-piperidyl)amino]-2-fluoro-phenyl]-4-hydroxy-4-piperidyl]acetyl]piperazin-1-yl]phenyl]-4-fluoro-1-oxo-isoindolin-2-yl]-N-thiazol-2-yl-acetamide] | – | < 50 nM | < 50 nM | – | – |
| O=C1CC[C@@H](Nc2ccc(C3CCN(C(=O)CCCN4CCN(c5ccc(-c6cc(F)c7c(c6)C(=O)N(C(C(=O)Nc6nccs6)c6ncn8c6CCC8)C7)cc5)CC4)CC3)cc2)C(=O)N1 (stereo in doubt) [Compound 176, 2-(6,7-dihydro-5H-pyrrolo[1,2-c]imidazol-1-yl)-2-(6-(4-(4-(4-(4-(4-((2,6-dioxopiperidin-3-yl)amino)phenyl)piperidin-1-yl)-4-oxobutyl)piperazin-1-yl)phenyl)-4-fluoro-1-oxoisoindolin-2-yl)-N-(thiazol-2-yl)acetamide] | – | < 50 nM | < 50 nM | – | – |
| O=C1CC[C@H](Nc2ccc(C3CCN(CC(=O)N4CCC(c5cnn(-c6cc(F)c7c(c6)C(=O)N(C(C(=O)Nc6nccs6)c6ncn8c6CCC8)C7)c5)CC4)CC3)cc2)C(=O)N1 (stereo partly drawn) [Compound 29, 2-(6,7-dihydro-5H-pyrrolo[1,2-c]imidazol-1-yl)-2-[6-[4-[1-[2-[4-[4-[[(3S)-2,6-dioxo-3-piperidyl]amino]phenyl]-1-piperidyl]acetyl]-4-piperidyl]pyrazol-1-yl]-4-fluoro-1-oxo-isoindolin-2-yl]-N-thiazol-2-yl-acetamide] | – | – | – | < 50 nM | < 50 nM |
| O=C1CC[C@H](Nc2ccc(C3CCN(C(=O)CC4(O)CCN(c5ccc(-c6ccc7cn(C(C(=O)Nc8nccs8)c8ncn9c8CCC9)nc7c6F)cc5)CC4)CC3)c(F)c2)C(=O)N1 (stereo partly drawn) [Compound 149, 2-(6,7-dihydro-5H-pyrrolo[1,2-c]imidazol-1-yl)-2-[6-[4-[4-[2-[4-[4-[[(3S)-2,6-dioxo-3-piperidyl]amino]-2-fluoro-phenyl]-1-piperidyl]-2-oxo-ethyl]-4-hydroxy-1-piperidyl]phenyl]-7-fluoro-indazol-2-yl]-N-thiazol-2-yl-acetamide] | < 50 nM | – | – | – | – |
| Cn1nc(N2CCC(=O)NC2=O)c2ccc(C3CCN(C(=O)CN4CC5(C4)CN(c4ccc(-c6ccc7cn(C(C(=O)Nc8nccs8)c8ncn9c8CCC9)nc7c6F)cn4)C5)CC3(F)F)cc21 (stereo not drawn) [Compound 73, 2-(6,7-dihydro-5H-pyrrolo[1,2-c]imidazol-1-yl)-2-(6-(6-(6-(2-(4-(3-(2,4-dioxotetrahydropyrimidin-1(2H)-yl)-1-methyl-1H-indazol-6-yl)-3,3-difluoropiperidin-1-yl)-2-oxoethyl)-2,6-diazaspiro[3.3]heptan-2-yl)pyridin-3-yl)-7-fluoro-2H-indazol-2-yl)-N-(thiazol-2-yl)acetamide] | – | < 50 nM | < 50 nM | – | – |
| O=C1CCC(Nc2ccc(C3CCN(C(=O)C(=O)N4CCC(Oc5ccc(-c6cc(F)c7c(c6)C(=O)N(C(C(=O)Nc6nccs6)c6ncn8c6CCC8)C7)cc5)CC4)CC3)cc2)C(=O)N1 (stereo not drawn) [Compound 40, 2-(6,7-dihydro-5H-pyrrolo[1,2-c]imidazol-1-yl)-2-[6-[4-[[1-[2-[4-[4-[(2,6-dioxo-3-piperidyl)amino]phenyl]-1-piperidyl]-2-oxo-acetyl]-4-piperidyl]oxy]phenyl]-4-fluoro-1-oxo-isoindolin-2-yl]-N-thiazol-2-yl-acetamide] | – | – | – | < 50 nM | < 50 nM |
